Results on six compounds are retold here after patent publication US6555322B1, “α2-macroglobulin receptor as a receptor for CTGF” (FibroGen, Inc., priority 1999, dated 2003).

The target of test [1] is T1, LRP (Mus musculus, UniProt Q91ZX7).
T1 construct: endogenous in cells; host or cells: BMS2 (BMS-2) murine bone marrow stromal cells
The test can be described thus: Competitive binding and cross-linking of LRP ligands with 125I-CTGF on BMS-2 cells. Also noted: species or system murine. As to conditions: 50 pM 125I-CTGF; CTGF 21.5 nM, BP5 201-218 50 μg/ml, LF 25 μg/ml, apo E 20 μg/ml, LpL 20 μg/ml. Here is the method:
To examine whether ligands known to bind to LRP inhibit CTGF binding, BMS-2 cells were labeled with 50 pM ^125I-CTGF in the presence or absence of unlabeled ligand (CTGF: 21.5 nM; BP5^201-218: 50 μg/ml or […] (Campbell and Andress, 1997, Am. J. Physiol., 273:E1005-13); lactoferrin (LF): 25 μg/ml or 250 nM; apo E: 20 μg/ml or 574 nM; lipoprotein lipase (LpL): 20 μg/ml or 400 nM). The cells were cross-linked and the receptor complexes were solubilized, processed on SDS-PAGE and visualized by autoradiography.

Test [2] has as its target T2, high Mr CTGF binding protein on BMS-2 cells (Mus musculus, UniProt Q91ZX7).
T2 construct: endogenous in cells; host or cells: BMS2 (BMS-2) murine bone marrow stromal cells
The test can be described thus: Binding analysis of 125I-CTGF competition with LRP ligands on BMS-2 cells. Also noted: species or system murine. As to conditions: 0.1 nM 125I-CTGF. The method, then:
BMS-2 cells were incubated with 0.1 nM ^125I-CTGF in the presence of unlabeled CTGF, recombinant human apoE, low density lipoprotein purified from human plasma (LDL), or lipoprotein lipase purified from bovine milk (LpL).

Test [3] deals with MG63 cells. The test can be described thus: Internalization and degradation kinetics of 125I-CTGF with heparin or lactoferrin. To be noted: 3 μg/ml heparin or lactoferrin. The test is classed as cell-based, human. Here is the method: Experiments were performed in which the internalization and degradation kinetics of CTGF were followed in the presence or absence of a known LRP ligand, lactoferrin. Kinetics were followed in the presence or absence of 3 μg/ml heparin or lactoferrin. ^125I-CTGF was bound to MG63 cells at 4° C. and free CTGF was removed by washing the cells. Fresh medium was placed on the cells, and the cells were transferred to 37° C. At each time point, the medium was removed and TCA precipitated. Degraded ^125I-CTGF was quantified by measuring the cpm in the non-precipitable fraction (see FIG. 17). In parallel experiments, ^125I-CTGF was bound to MG63 cells at 4° C. and free CTGF was removed by washing the cells. Fresh medium was placed on the cells, and they were transferred to 37° C. At each time point, the cell layer was removed by extensive trypsinization at 4° C. The cells were centrifuged and the cpm associated with the pellet, the internalized fraction, was determined (see FIG. 18).

The test system of test [4] is MG63 cells. The test can be described thus: Internalization and degradation of 125I-rhCTGF during binding, with additives. In kind it is cell-based, human. As to conditions: for degraded/internalized 125I-CTGF with additive: both cultures (control and TGF-β treated). Here is the method:
Another experiment was performed in which the internalization and degradation of CTGF was followed during the time course of binding to the cells. Various additives were included in the binding medium to examine the effect(s) and specificity of CTGF binding and internalization through LRP.
MG63 cells were plated and treated with TGF-β for 24 or 48 hours as in the previous experiment.

Test [5] has as its target T1, LRP. Description: RAP-GST competition of CTGF binding on BMS-2 cells. Also on record: species or system murine. The method, then:
In a further study, receptor associated protein (RAP), a known inhibitor of ligand binding to LRP, was prepared. Plasmid DNA containing the human RAP cDNA sequence was obtained (ATCC as the I.M.A.G.E. Consortium Clone ID 511113, Lennon et al., 1996, Genomics, 33:151-152). The RAP sequence was sub-cloned into the pGEX4T-1 vector (Pharmacia) for the synthesis of a RAP-GST (glutathione S-transferase) fusion protein in E. coli. The fusion protein was purified over glutathione-Sepharose as described (Warshawsky et al., 1993, J. Biol. Chem., 268:22046-22054), and tested as a competitor of CTGF binding.

The test system of test [6] is MG63 cells. Description: CTGF production and accumulation in medium and cell layer (Western blot, densitometry). The test is classed as cell-based, human. As to conditions: RAP 10 nM. The method, then: To determine whether LRP was involved in the mediation of a CTGF signaling event, experiments were conducted to study the effect of anti-LRP antibodies on CTGF production and accumulation. MG63 cells were plated at 2.5×10^4 cells/cm^2 in 24 well plates in MEM with 10% FBS. The following day, the medium was changed to MEM with 0.5% FBS. Additionally, half of the wells were supplemented with 20 ng/ml TGF-β2. Some of the cells also received either anti-LRP antibodies (American Diagnostic) (3 ug/ml 3402 and 1 ug/ml 3501) or RAP (10 nM). At 15, 23, and 47 hours after exposure to these additives, medium and cell layers were harvested.
The harvested media was then incubated with heparin-SEPHAROSE for 4 hours. The beads were washed twice with RIPA buffer and the bound fraction was eluted with SDS-PAGE sample buffer. The cell layer was washed twice with PBS, then extracted for 15 min at 4° C. with RIPA buffer. The cell layer was collected by scraping, and centrifuged to remove the insoluble material. The soluble fraction was used for SDS-PAGE analysis. Both medium and cell layer samples were run non-reduced on 12% SDS-PAGE, then blotted to nitrocellulose. The nitrocellulose membranes were incubated with a rabbit polyclonal antibody made against rhCTGF (using procedures well known in the art), the data of which is shown in FIGS. 22A and 22B.
For orientation: Immunoblotting shows a protein as a band on a membrane.

T1 sequence (Q91ZX7 20-4545): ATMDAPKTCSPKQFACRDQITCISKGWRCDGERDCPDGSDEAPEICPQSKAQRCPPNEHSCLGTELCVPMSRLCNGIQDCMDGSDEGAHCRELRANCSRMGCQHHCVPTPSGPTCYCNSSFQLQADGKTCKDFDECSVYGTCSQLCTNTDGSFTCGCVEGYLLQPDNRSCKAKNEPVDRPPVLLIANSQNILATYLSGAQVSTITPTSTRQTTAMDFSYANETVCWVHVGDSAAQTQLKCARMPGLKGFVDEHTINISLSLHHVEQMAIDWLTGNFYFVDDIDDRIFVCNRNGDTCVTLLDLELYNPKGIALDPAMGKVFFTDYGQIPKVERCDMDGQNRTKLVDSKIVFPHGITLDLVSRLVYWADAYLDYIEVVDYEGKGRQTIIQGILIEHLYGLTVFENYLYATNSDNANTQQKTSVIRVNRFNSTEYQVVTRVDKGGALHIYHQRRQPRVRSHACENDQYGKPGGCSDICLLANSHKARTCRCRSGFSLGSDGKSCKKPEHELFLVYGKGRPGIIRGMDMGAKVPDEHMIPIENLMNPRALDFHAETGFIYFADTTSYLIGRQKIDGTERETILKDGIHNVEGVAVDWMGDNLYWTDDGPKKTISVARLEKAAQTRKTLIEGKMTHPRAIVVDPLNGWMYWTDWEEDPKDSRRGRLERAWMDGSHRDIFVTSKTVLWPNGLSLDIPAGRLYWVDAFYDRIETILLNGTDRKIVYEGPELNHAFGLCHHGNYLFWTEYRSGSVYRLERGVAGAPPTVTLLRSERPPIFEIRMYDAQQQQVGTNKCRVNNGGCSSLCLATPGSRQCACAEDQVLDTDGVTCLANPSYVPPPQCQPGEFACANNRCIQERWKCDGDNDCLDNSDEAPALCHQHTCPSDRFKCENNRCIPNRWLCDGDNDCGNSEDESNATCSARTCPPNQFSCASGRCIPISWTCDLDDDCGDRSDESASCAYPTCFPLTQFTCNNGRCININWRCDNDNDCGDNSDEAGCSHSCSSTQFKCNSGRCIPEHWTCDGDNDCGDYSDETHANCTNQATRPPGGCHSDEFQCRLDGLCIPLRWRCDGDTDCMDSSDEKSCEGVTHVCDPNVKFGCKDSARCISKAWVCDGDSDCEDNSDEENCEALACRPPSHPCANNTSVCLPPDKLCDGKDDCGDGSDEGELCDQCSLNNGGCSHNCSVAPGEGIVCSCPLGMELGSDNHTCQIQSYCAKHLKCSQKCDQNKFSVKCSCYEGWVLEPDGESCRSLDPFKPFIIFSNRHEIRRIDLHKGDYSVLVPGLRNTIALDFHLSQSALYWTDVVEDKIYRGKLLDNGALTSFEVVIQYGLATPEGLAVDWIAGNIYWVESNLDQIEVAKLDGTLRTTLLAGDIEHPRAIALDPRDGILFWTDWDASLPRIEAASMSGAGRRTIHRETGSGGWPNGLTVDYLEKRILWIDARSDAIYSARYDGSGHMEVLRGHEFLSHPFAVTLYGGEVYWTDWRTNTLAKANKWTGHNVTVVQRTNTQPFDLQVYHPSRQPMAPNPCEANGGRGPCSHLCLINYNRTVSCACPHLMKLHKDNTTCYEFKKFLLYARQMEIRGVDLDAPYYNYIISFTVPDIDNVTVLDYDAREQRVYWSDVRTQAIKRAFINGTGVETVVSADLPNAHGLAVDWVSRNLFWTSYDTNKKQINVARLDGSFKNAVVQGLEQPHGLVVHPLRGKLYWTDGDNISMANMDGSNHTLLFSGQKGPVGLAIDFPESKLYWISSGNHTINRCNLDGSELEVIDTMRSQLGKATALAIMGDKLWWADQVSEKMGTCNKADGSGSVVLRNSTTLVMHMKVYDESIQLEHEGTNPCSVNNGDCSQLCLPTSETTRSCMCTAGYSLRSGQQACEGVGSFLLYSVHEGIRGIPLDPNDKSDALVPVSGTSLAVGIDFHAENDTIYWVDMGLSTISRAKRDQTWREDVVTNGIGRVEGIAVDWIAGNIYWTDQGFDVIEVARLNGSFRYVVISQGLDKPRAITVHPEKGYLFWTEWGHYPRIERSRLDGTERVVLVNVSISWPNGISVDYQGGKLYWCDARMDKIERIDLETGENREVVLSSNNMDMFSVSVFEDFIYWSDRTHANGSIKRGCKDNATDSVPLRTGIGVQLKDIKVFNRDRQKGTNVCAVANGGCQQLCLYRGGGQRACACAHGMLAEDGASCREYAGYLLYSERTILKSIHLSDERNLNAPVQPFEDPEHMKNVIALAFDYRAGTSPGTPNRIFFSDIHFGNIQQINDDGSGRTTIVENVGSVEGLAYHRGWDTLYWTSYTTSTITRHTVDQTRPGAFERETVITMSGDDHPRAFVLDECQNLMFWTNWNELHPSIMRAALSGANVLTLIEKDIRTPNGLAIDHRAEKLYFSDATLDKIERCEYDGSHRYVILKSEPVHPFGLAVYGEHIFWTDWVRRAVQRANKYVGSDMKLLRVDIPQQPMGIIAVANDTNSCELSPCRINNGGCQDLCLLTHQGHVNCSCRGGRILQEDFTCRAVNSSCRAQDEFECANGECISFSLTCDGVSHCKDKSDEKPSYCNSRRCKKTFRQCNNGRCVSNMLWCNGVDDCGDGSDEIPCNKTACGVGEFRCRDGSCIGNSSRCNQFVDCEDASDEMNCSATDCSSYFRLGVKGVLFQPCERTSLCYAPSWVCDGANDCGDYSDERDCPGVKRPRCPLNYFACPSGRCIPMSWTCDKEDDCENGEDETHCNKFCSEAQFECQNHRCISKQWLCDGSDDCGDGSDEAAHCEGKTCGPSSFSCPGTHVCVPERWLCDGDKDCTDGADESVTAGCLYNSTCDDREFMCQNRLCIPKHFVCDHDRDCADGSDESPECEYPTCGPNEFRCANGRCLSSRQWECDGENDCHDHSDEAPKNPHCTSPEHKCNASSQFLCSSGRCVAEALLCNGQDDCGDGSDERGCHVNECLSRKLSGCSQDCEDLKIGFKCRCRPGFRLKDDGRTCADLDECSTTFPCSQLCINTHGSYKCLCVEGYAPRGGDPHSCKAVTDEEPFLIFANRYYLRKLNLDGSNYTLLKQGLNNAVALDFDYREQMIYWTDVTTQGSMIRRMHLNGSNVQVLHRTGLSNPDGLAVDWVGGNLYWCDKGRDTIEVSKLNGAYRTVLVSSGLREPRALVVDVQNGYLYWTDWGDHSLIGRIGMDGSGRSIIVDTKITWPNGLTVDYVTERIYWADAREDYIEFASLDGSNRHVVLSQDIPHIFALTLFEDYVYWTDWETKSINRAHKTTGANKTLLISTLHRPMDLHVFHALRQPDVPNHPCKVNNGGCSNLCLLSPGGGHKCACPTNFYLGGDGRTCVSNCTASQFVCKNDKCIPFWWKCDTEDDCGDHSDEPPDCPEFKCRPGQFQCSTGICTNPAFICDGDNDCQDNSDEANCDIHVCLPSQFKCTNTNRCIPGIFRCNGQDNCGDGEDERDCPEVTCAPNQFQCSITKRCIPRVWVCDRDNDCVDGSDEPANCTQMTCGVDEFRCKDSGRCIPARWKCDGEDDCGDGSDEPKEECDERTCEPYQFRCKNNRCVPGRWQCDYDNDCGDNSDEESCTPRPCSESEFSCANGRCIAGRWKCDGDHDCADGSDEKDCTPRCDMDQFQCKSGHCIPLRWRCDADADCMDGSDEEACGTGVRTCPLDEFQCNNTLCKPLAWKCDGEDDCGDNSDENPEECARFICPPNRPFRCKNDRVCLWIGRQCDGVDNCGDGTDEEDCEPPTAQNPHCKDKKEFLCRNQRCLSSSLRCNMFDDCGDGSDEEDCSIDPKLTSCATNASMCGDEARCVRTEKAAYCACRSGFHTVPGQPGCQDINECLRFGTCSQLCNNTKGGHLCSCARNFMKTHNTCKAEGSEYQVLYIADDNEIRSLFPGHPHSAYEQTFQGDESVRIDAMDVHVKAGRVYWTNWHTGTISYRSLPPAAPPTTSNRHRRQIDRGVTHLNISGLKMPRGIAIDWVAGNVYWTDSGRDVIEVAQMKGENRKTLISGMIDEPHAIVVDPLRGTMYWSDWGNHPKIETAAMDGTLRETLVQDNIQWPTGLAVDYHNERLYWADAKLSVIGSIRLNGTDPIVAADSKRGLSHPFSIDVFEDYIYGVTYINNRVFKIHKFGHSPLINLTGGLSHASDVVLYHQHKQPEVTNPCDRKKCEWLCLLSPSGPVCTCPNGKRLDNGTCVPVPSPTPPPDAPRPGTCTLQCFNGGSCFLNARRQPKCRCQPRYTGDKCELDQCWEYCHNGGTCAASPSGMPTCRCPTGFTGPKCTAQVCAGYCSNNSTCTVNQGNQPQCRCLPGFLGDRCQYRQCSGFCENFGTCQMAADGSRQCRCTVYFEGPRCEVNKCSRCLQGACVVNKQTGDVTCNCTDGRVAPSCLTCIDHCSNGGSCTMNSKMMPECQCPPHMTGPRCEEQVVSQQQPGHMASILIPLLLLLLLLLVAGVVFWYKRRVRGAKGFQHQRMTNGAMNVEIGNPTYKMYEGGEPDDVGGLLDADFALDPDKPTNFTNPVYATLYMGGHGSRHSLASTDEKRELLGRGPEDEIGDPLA
T2 sequence (Q91ZX7 20-4545): as above

For “apolipoprotein E [apoE, reference compound]”, the “competing the binding to the LRP receptor” value with LRP [1] is “very effective in competing”. The “competition with 125I-CTGF” value in test [2] is reported as “competed”.

For the compound heparin [reference compound], in the test on MG63 cells [3], the “rate of degradation of CTGF” value is “reduced the rate” and the “rate of internalization of CTGF” value is recorded as “reduced the rate”.

For `CC(C)C[C@H](NC(=O)[C@@H](NC(=O)N[C@@H](Cc1ccccc1)C(=O)O)[C@@H]1CCN=C(N)N1)C(=O)N[C@H](C=O)Cc1ccccc1` [Chymostatin], the “degraded/internalized 125I-CTGF with additive” value with MG63 cells [4] is listed as “no appreciable affect”.

In the case of `CCN(CC)CCCC(C)Nc1ccnc2cc(Cl)ccc12` (centres unmarked) [chloroquin, Chloroquin], the “rhCTGF remaining internalized, TGF-β treated cultures” value in the test with MG63 cells [4] (chloroquin treated samples, TGF-β treated cultures) is ~400 fmol. Also, the “rhCTGF remaining internalized, control cultures” value in the test with MG63 cells [4] (chloroquin treated samples, control cultures) is on record as “About 1000 fmoles”. For the same compound, the “secretion of CTGF degradation products into the medium” value with MG63 cells [4] (in the presence of chloroquin) is “not secreted into the medium”.

On to “GST: GST protein by itself, control for RAP-GST”, for which the “competition for CTGF binding to LRP” value with LRP [5] was “no competitive activity”.

For “RAP-GST: human receptor associated protein as glutathione S-transferase fusion protein made in E. coli; inhibitor of ligand binding to LRP”, the “degraded/internalized 125I-CTGF with additive” value with MG63 cells [4] was “to background levels”. In the test on MG63 cells [6], the “CTGF levels in cell layer, RAP treated samples” value is given as “slightly increased levels”; the “CTGF medium concentration at 15 and 23 hours” value is reported as “an increase”; the “CTGF medium levels at 47 hours” value is “returned to basal levels”. Further, the “competition for CTGF binding to LRP” value in the test with LRP [5] is “able to compete”.
